# From patent US20250326753A1, “DUAL CXCR4-BTK INHIBITORS” (X4 Pharmaceuticals, Inc., priority 2022, published 2025)
# Where two headings read alike, the source gives them in different places.
# Legend:
# Assay type in all cases: biochemical
# TEC = target: T1, TEC (Homo sapiens, UniProt P42680); test: PanQinase kinase panel: TEC; conditions: for inhibition at 1 µM: read-out: INHIBITORY EFFECT @ 1 uM: TEC
# T1 construct: purchased Reaction Biology Europe GmbH
# T1 sequence (P42680 1-631): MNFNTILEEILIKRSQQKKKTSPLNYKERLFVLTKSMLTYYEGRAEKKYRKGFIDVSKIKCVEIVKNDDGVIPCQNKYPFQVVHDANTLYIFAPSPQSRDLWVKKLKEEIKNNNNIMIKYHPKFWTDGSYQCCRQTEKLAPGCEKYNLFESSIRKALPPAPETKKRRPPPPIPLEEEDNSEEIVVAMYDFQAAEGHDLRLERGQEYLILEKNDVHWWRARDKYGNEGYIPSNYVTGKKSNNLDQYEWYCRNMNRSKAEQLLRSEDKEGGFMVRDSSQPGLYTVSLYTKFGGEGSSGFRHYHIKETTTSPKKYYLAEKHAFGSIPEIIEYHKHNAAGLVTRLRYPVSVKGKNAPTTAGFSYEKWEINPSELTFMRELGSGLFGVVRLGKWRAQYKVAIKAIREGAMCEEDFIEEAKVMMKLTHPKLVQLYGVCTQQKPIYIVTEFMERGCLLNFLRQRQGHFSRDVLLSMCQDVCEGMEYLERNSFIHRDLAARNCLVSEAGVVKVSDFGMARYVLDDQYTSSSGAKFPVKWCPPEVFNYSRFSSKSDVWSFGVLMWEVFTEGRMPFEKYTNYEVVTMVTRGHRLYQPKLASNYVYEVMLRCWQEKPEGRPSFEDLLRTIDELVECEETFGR
# Method: (§1) Screening procedures were performed in accordance with the company's on-line protocol [accessed on-line Mar.
# (§2) For each kinase, the median value of the cpm of three wells was defined as “low control” (n=3). This value reflects unspecific binding of radioactivity to the plate in the absence of a protein kinase but in the presence of the substrate. Additionally, for each kinase the median value of the cpm of three other wells was taken as the “high control,” i.e. full activity in the absence of any inhibitor (n=3). The difference between high and low control of each enzyme was taken as 100% activity.
# As part of the data evaluation the low control of each kinase was subtracted from the high control value as well as from their corresponding “compound values”.
# ARAF YDYD = target: T2, ARAF YDYD (Homo sapiens, UniProt P10398, Y301D/Y302D); test: PanQinase kinase panel: ARAF YDYD; conditions: read-out: INHIBITORY EFFECT @ 1 uM: ARAF YDYD
# T2 construct: purchased Reaction Biology Europe GmbH
# T2 sequence (P10398 1-606 Y301D/Y302D): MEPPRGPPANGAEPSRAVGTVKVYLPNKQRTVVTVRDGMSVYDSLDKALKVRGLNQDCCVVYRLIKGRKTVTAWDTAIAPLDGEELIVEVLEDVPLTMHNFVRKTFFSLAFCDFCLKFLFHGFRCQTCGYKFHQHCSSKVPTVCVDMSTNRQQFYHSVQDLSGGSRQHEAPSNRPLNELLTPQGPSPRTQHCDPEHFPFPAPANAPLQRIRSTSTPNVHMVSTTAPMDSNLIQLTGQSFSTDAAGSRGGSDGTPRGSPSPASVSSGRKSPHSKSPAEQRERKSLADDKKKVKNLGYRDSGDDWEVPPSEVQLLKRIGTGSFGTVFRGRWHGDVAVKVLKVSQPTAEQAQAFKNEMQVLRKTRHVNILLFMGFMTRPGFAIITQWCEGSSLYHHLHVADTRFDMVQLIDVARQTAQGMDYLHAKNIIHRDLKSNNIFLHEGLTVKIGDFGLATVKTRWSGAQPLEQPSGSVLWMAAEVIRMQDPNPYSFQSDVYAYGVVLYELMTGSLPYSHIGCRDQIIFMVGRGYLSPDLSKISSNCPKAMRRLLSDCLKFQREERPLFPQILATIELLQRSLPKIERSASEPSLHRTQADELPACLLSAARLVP
# Method: as §1, §2
# (§3) As part of the data evaluation the low control of each kinase was subtracted from the high control value as well as from their corresponding “compound values”. The residual activity (in %) for each compound well was calculated by using the following formula: Res. Activity (%)=100×[(signal of compound−low control)/(high control−low control)].
# EPHB2 = target: T3, EPHB2 (Homo sapiens, UniProt P29323); test: PanQinase kinase panel: EPHB2; conditions: read-out: INHIBITORY EFFECT @ 1 uM: EPHB2
# T3 construct: purchased Reaction Biology Europe GmbH
# T3 sequence (P29323 19-1055): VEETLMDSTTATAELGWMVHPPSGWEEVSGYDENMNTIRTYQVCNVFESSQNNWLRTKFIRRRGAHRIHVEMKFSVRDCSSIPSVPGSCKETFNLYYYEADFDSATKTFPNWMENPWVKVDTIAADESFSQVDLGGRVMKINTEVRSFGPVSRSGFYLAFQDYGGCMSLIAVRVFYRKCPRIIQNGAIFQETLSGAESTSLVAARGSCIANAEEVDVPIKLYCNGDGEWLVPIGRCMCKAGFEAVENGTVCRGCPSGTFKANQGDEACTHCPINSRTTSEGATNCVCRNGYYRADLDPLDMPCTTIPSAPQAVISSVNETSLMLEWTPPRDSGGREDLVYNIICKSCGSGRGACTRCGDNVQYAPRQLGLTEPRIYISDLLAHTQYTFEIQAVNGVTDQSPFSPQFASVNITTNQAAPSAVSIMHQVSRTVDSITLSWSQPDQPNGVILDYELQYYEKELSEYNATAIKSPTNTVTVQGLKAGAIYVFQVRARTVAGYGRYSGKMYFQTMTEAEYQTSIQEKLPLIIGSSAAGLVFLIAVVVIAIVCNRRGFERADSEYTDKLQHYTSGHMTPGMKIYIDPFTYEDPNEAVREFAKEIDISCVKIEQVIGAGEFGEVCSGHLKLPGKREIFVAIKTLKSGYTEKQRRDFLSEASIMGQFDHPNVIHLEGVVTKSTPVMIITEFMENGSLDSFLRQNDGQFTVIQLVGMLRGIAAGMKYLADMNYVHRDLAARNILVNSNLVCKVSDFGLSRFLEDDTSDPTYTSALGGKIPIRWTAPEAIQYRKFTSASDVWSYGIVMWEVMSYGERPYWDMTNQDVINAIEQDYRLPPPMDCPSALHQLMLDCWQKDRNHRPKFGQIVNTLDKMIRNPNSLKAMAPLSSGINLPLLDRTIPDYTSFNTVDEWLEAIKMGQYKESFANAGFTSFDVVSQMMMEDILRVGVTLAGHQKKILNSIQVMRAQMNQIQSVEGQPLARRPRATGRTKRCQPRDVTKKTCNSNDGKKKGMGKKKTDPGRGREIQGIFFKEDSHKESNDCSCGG
# Method: as §1, §2, §3
# FER = target: T4, FER (Homo sapiens, UniProt P16591); test: PanQinase kinase panel: FER; conditions: read-out: INHIBITORY EFFECT @ 1 uM: FER
# T4 construct: purchased Reaction Biology Europe GmbH
# Method: as §1, §2, §3
# CLK2 = target: T5, CLK2 (Homo sapiens, UniProt P49760); test: PanQinase kinase panel: CLK2
# T5 construct: purchased Reaction Biology Europe GmbH
# Method: as §1, §2, §3
# [1] = read-out: INHIBITORY EFFECT @ 1 uM: CLK2
# T4 sequence (P16591 whole entry): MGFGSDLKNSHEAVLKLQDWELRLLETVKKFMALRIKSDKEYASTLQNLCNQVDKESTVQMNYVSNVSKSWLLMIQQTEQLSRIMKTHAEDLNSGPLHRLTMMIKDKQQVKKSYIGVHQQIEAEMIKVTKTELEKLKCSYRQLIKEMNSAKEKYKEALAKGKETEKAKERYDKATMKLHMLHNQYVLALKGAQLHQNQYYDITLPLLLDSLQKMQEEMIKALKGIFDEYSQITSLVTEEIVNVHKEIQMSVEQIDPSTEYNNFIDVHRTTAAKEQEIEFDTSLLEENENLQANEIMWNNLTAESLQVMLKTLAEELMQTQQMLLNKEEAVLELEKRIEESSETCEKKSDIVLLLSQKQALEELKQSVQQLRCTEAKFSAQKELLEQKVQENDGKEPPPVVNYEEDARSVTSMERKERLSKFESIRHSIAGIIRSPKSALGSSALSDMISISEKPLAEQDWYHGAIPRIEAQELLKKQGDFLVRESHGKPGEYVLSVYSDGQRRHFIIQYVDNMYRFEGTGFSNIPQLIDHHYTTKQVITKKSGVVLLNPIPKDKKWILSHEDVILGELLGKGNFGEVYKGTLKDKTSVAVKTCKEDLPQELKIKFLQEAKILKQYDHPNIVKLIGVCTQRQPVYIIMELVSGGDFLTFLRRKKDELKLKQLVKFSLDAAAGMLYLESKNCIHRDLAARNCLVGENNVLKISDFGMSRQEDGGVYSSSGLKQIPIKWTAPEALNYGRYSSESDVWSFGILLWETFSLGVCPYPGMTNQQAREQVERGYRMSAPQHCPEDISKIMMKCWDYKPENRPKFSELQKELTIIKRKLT
# T5 sequence (P49760 whole entry): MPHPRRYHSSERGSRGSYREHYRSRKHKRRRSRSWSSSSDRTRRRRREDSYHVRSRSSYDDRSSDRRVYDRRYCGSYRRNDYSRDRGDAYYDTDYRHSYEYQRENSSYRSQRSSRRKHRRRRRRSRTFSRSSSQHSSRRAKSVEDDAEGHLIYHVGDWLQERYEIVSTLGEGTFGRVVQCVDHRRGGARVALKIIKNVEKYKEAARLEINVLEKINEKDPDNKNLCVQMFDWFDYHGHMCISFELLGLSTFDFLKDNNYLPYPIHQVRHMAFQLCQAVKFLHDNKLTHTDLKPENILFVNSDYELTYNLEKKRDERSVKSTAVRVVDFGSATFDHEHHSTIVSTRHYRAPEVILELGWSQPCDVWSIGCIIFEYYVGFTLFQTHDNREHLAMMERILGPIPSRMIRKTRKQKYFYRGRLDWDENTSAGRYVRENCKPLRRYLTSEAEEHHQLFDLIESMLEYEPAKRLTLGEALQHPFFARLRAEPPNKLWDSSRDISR
SMILES,inhibition at 1 µM (TEC) [%],inhibition at 1 µM (ARAF YDYD) [%],inhibition at 1 µM (EPHB2) [%],inhibition at 1 µM (FER) [%],"inhibition at 1 µM (CLK2; at 1 μM, read-out: inhibition of CLK2) [%]",inhibition at 1 µM (CLK2; [1]) [%],INHIBITORY EFFECT @ 1 uM: TEC (TEC; 1 uM)
"O=C(c1ccc(Oc2ccccc2)cc1Cl)c1c[nH]c2ncnc(N[C@@H]3CC[C@@H](CO)OC3)c12 [ARQ-531, (2-chloro-4-phenoxyphenyl) (4-(((3R,6S)-6-(hydroxymethyl)tetrahydro-2H-pyran-3-yl)amino)-7H-pyrrolo[2,3-d]pyrimidin-5-yl) methanone]",90 to 100,70 to 89,70 to 89,70 to 89,–,–,–
"Cc1cccnc1[C@H]1CCC[C@@H](c2ncccc2C)N1CCN1CCN(C(=O)c2ccc(-c3cc4c(-c5cccc(NC(=O)c6ccccc6)c5C)ncnc4[nH]3)cc2)CC1 [Compound I-10, N-(3-(6-(4-(4-(2-((2R,6S)-2,6-bis(3-methylpyridin-2-yl)piperidin-1-yl)ethyl)piperazine-1-carbonyl)phenyl)-7H-pyrrolo[2,3-d]pyrimidin-4-yl)-2-methylphenyl)benzamide]",70 to 89,< 50,< 50,< 50,50 to 89,50 to 69,–
"COc1ccc(F)cc1C(=O)NCc1ccc(-c2nn([C@@H](C)C(F)(F)F)c(N)c2C(N)=O)cc1 [LOXO-305, pirtobrutinib]",90 to 100,< 50,< 50,< 50,–,< 50,–
"C=CC(=O)N1CCC([C@@H]2CCNc3c(C(N)=O)c(-c4ccc(Oc5ccccc5)cc4)nn32)CC1 [Zanubrutinib, (7S)-2-(4-phenoxyphenyl)-7-(1-prop-2-enoylpiperidin-4-yl)-4,5,6,7-tetrahydropyrazolo[1,5-a]pyrimidine-3-carboxamide]",–,< 50,< 50,< 50,–,< 50,++++ (90%-100% Inhibition at 1 uM)
